Test results taken from patent publication US9963442B2, “Pyridones as herbicides” (E I DU PONT DE NEMOURS AND COMPANY, priority 2014, dated 2018).

What was measured:
Assay type in all cases: in vivo
[1] = system: galium (catchweed bedstraw, Galium aparine); test: Test C preemergence; conditions: scale 0 to 100, 0 is no effect, 100 is complete control
Text: (§1) Seeds of plant species selected from blackgrass (Alopecurus myosuroides), Italian ryegrass (Lolium multiflorum), winter wheat (Triticum aestivum), galium (catchweed bedstraw, Galium aparine), corn (Zea mays), large (Lg) crabgrass (Digitaria sanguinalis), giant foxtail (Setaria faberii), johnsongrass (Sorghum halepense), lambsquarters (Chenopodium album), morningglory (Ipomoea coccinea), yellow nutsedge (Cyperus esculentus), pigweed (Amaranthus retroflexus), ragweed (common ragweed, Ambrosia elatior), soybean (Glycine max), barnyardgrass (Echinochloa crus-galli), oilseed rape (Brassica napus), waterhemp (common waterhemp, Amaranthus rudis), and velvetleaf (Abutilon theophrasti) were planted into a blend of loam soil and sand and treated preemergence with test chemicals formulated in a non-phytotoxic solvent mixture which included a surfactant. At the same time, plants selected from these crop and weed species and also chickweed (common chickweed, Stellaria media), kochia (Kochia scoparia), and wild oat (Avena fatua), were planted in pots containing Sunshine Redi-Earth® planting medium comprising spaghnum peat moss, vermiculite, starter nutrients and dolomitic limestone and treated with postemergence applications of test chemicals formulated in the same manner. Plants ranged in height from 2 to 18 cm (1- to 4-leaf stage) for postemergence treatments. Treated plants and controls were maintained in a greenhouse for 13 to 15 days, after which time all species were compared to controls and visually evaluated. Plant response ratings, summarized in Table C, are based on a scale of 0 to 100 where 0 is no effect and 100 is complete control. A dash (-) response means no test result.

[2] = system: yellow nutsedge (Cyperus esculentus); test: Test C preemergence; conditions: scale 0 to 100, 0 is no effect, 100 is complete control
Text: as §1

[3] = system: oilseed rape (Brassica napus); test: Test C preemergence; conditions: scale 0 to 100, 0 is no effect, 100 is complete control
Text: as §1

[4] = system: velvetleaf (Abutilon theophrasti); test: Test C preemergence; conditions: scale 0 to 100, 0 is no effect, 100 is complete control
Text: as §1

[5] = system: barnyardgrass (Echinochloa crus-galli); test: Test C preemergence; conditions: scale 0 to 100, 0 is no effect, 100 is complete control
Text: as §1

[6] = system: winter wheat (Triticum aestivum); test: Test C preemergence; conditions: scale 0 to 100, 0 is no effect, 100 is complete control
Text: as §1

[7] = system: morningglory (Ipomoea coccinea); test: Test C preemergence; conditions: scale 0 to 100, 0 is no effect, 100 is complete control
Text: as §1

[8] = system: waterhemp (common waterhemp, Amaranthus rudis); test: Test C preemergence; conditions: scale 0 to 100, 0 is no effect, 100 is complete control
Text: as §1

[9] = system: lambsquarters (Chenopodium album); test: Test C preemergence; conditions: scale 0 to 100, 0 is no effect, 100 is complete control
Text: as §1

corn (Zea mays) = test: Test C preemergence; conditions: scale 0 to 100, 0 is no effect, 100 is complete control
Text: as §1

[10] = system: blackgrass (Alopecurus myosuroides); test: Test C preemergence; conditions: scale 0 to 100, 0 is no effect, 100 is complete control
Text: as §1

[11] = system: Italian ryegrass (Lolium multiflorum); test: Test C preemergence; conditions: scale 0 to 100, 0 is no effect, 100 is complete control
Text: as §1

[12] = system: pigweed (Amaranthus retroflexus); test: Test C preemergence; conditions: scale 0 to 100, 0 is no effect, 100 is complete control
Text: as §1

[13] = system: large (Lg) crabgrass (Digitaria sanguinalis); test: Test C preemergence; conditions: scale 0 to 100, 0 is no effect, 100 is complete control
Text: as §1

[14] = system: ragweed (common ragweed, Ambrosia elatior); test: Test C preemergence; conditions: scale 0 to 100, 0 is no effect, 100 is complete control
Text: as §1

[15] = system: giant foxtail (Setaria faberii); test: Test C preemergence; conditions: scale 0 to 100, 0 is no effect, 100 is complete control
Text: as §1

[16] = system: barnyardgrass (Echinochloa crus-galli); test: Test B flooded paddy test; design: key: 0 = no effect, 100 = complete control; conditions: Flood, 250 g ai/ha applied to paddy water at 2-leaf stage; visually evaluated after 13 to 15 days; scale 0 (no effect) to 100 (complete control)
Protocol: (§2) Plant species in the flooded paddy test selected from rice (Oryza sativa), sedge, umbrella (small-flower umbrella sedge, Cyperus difformis), ducksalad (Heteranthera limosa), and barnyardgrass (Echinochloa crus-galli) were grown to the 2-leaf stage for testing. At time of treatment, test pots were flooded to 3 cm above the soil surface, treated by application of test compounds directly to the paddy water, and then maintained at that water depth for the duration of the test. Treated plants and controls were maintained in a greenhouse for 13 to 15 days, after which time all species were compared to controls and visually evaluated. Plant response ratings, summarized in Table B, are based on a scale of 0 to 100 where 0 is no effect and 100 is complete control. A dash (-) response means no test result.

[17] = system: ducksalad (Heteranthera limosa); test: Test B flooded paddy test; design: key: 0 = no effect, 100 = complete control; conditions: Flood, 250 g ai/ha applied to paddy water at 2-leaf stage; visually evaluated after 13 to 15 days; scale 0 (no effect) to 100 (complete control)
Protocol: as §2

rice (Oryza sativa) = test: Test B flooded paddy test; design: key: 0 = no effect, 100 = complete control; conditions: Flood, 250 g ai/ha applied to paddy water at 2-leaf stage; visually evaluated after 13 to 15 days; scale 0 (no effect) to 100 (complete control)
Protocol: as §2

[18] = system: sedge, umbrella (small-flower umbrella sedge, Cyperus difformis); test: Test B flooded paddy test; design: key: 0 = no effect, 100 = complete control; conditions: Flood, 250 g ai/ha applied to paddy water at 2-leaf stage; visually evaluated after 13 to 15 days; scale 0 (no effect) to 100 (complete control)
Protocol: as §2

O=c1cccc(Oc2ncc(Cl)cn2)n1-c1ccc(Cl)cc1 [Compound 1, 1-(4-chlorophenyl)-6-[(5-chloro-2-pyrimidinyl)oxy]-2(1H)-pyridinone]
Plant response rating, Galium ([1]; 16 g ai/ha): 90
Plant response rating, Galium ([1]; 31 g ai/ha): 0
Plant response rating, Galium ([1]; 62 g ai/ha): 0
Plant response rating, Galium ([1]; 125 g ai/ha): 40
Plant response rating, Nutsedge, Yellow ([2]; 16 g ai/ha): 0
Plant response rating, Nutsedge, Yellow ([2]; 31 g ai/ha): 0
Plant response rating, Nutsedge, Yellow ([2]; 62 g ai/ha): 0
Plant response rating, Nutsedge, Yellow ([2]; 125 g ai/ha): 5
Plant response rating, Oilseed Rape ([3]; 16 g ai/ha): 0
Plant response rating, Oilseed Rape ([3]; 31 g ai/ha): 0
Plant response rating, Oilseed Rape ([3]; 62 g ai/ha): 10
Plant response rating, Oilseed Rape ([3]; 125 g ai/ha): 60
Plant response rating, Velvetleaf ([4]; 16 g ai/ha): 0
Plant response rating, Velvetleaf ([4]; 31 g ai/ha): 0
Plant response rating, Velvetleaf ([4]; 62 g ai/ha): 5
Plant response rating, Velvetleaf ([4]; 125 g ai/ha): 10
Plant response rating, Barnyardgrass ([5]; 16 g ai/ha): 5
Plant response rating, Barnyardgrass ([5]; 31 g ai/ha): 20
Plant response rating, Barnyardgrass ([5]; 62 g ai/ha): 40
Plant response rating, Barnyardgrass ([5]; 125 g ai/ha): 75
Plant response rating, Wheat ([6]; 16 g ai/ha): 0
Plant response rating, Wheat ([6]; 31 g ai/ha): 0
Plant response rating, Wheat ([6]; 62 g ai/ha): 0
Plant response rating, Wheat ([6]; 125 g ai/ha): 0
Plant response rating, Morningglory ([7]; 16 g ai/ha): 0
Plant response rating, Morningglory ([7]; 31 g ai/ha): 0
Plant response rating, Morningglory ([7]; 62 g ai/ha): 0
Plant response rating, Morningglory ([7]; 125 g ai/ha): 15
Plant response rating, Waterhemp ([8]; 16 g ai/ha): 20
Plant response rating, Waterhemp ([8]; 31 g ai/ha): 65
Plant response rating, Waterhemp ([8]; 62 g ai/ha): 100
Plant response rating, Waterhemp ([8]; 125 g ai/ha): 100
Plant response rating, Lambsquarters ([9]; 16 g ai/ha): 30
Plant response rating, Lambsquarters ([9]; 31 g ai/ha): 20
Plant response rating, Lambsquarters ([9]; 62 g ai/ha): 45
Plant response rating, Lambsquarters ([9]; 125 g ai/ha): 60
Plant response rating, Corn (corn (Zea mays); 16 g ai/ha): 0
Plant response rating, Corn (corn (Zea mays); 31 g ai/ha): 0
Plant response rating, Corn (corn (Zea mays); 62 g ai/ha): 0
Plant response rating, Corn (corn (Zea mays); 125 g ai/ha): 0
Plant response rating, Blackgrass ([10]; 16 g ai/ha): 0
Plant response rating, Blackgrass ([10]; 31 g ai/ha): 20
Plant response rating, Blackgrass ([10]; 62 g ai/ha): 25
Plant response rating, Blackgrass ([10]; 125 g ai/ha): 85
Plant response rating, Ryegrass, Italian ([11]; 16 g ai/ha): 0
Plant response rating, Ryegrass, Italian ([11]; 31 g ai/ha): 0
Plant response rating, Ryegrass, Italian ([11]; 62 g ai/ha): 5
Plant response rating, Ryegrass, Italian ([11]; 125 g ai/ha): 60
Plant response rating, Pigweed ([12]; 16 g ai/ha): 25
Plant response rating, Pigweed ([12]; 31 g ai/ha): 65
Plant response rating, Pigweed ([12]; 62 g ai/ha): 75
Plant response rating, Pigweed ([12]; 125 g ai/ha): 100
Plant response rating, Crabgrass, Large ([13]; 16 g ai/ha): 5
Plant response rating, Crabgrass, Large ([13]; 31 g ai/ha): 70
Plant response rating, Crabgrass, Large ([13]; 62 g ai/ha): 98
Plant response rating, Crabgrass, Large ([13]; 125 g ai/ha): 100
Plant response rating, Ragweed ([14]; 16 g ai/ha): 0
Plant response rating, Ragweed ([14]; 31 g ai/ha): 0
Plant response rating, Ragweed ([14]; 62 g ai/ha): 10
Plant response rating, Ragweed ([14]; 125 g ai/ha): 0
Plant response rating, Foxtail, Giant ([15]; 16 g ai/ha): 10
Plant response rating, Foxtail, Giant ([15]; 31 g ai/ha): 55
Plant response rating, Foxtail, Giant ([15]; 62 g ai/ha): 90
Plant response rating, Foxtail, Giant ([15]; 125 g ai/ha): 100
Plant response rating, Barnyardgrass [16]: 20
Plant response rating, Ducksalad [17]: 45
Plant response rating, Rice (rice (Oryza sativa)): 10
Plant response rating, Sedge, Umbrella [18]: 65
